Here are results for one molecule from PMC11369081, “Molecular mechanism of prolactin-releasing peptide recognition and signaling via its G protein-coupled receptor” (Cell Discovery, 2024).

Peptide text beside a SMILES is read from it.

Assay type in all cases: cell-based
One experiment addresses T1, PrRPR L203A (Homo sapiens, UniProt P49683, L203A).
T1 construct: expressed in transfected cells; host or cells: AD293 cells
Nature of the experiment: BRET2 Gq dissociation, L203A. The conditions noted are these: L203A (ECL2), Gq-coupling, AD293 cells; mean ± S.E.M., n = 3; P 0.0021 vs WT; read-out: BRET2 pEC50 (converted). The procedure:
(§1) AD293 cells (Agilent) were propagated in Dulbecco’s Modified Eagle Medium (DMEM, Thermo Fisher Scientific), enriched with 10% fetal bovine serum (FBS, Thermo Fisher Scientific), and maintained at 37 °C in a 5% CO2 environment. Cells were then seeded in 6-well dishes at a density of 130,000–150,000 cells per mL and allowed to incubate overnight. On the next day, cells were transfected with plasmids at a 1:1:1:1 ratio for receptor:Gα-RLuc8:Gβ:Gγ-GFP2[52]. PEI MAX 40 K (BIOHUB) was utilized to form complex with the plasmids at a ratio of 3 µL PEI per µg of plasmids, in OptiMEM (Gibco-Thermo Fisher Scientific) at a concentration of 10 ng plasmids per µL OptiMEM. After 24 h of incubation, the culture was harvested by centrifugation with PBS. The cell suspension was then allocated into a white 384-well plate at a volume of 30 µL per well, followed by the addition of 10 µL of freshly prepared 50 µM coelenterazine 400a (Yeasen). […] Plates were subsequently read in a BioTek Synergy H1 microplate reader (BioTek) equipped with 395 nm (RLuc8-coelenterazine 400a) and 510 nm (GFP2) emission filters. BRET2 ratios were calculated as the ratio of the GFP2 emission to RLuc8 emission. […]
(§2) Supplementary Fig. S4 | Effects of mutations in the ligand-binding pocket and G protein intereface of Gq coupled PrRPR by BRET2 assay. […] BRET2 assay signals were measured after stimulation with PrRP20. […]
In general terms: Bioluminescence resonance energy transfer reports proximity on the nanometre scale.

The next experiment concerns the target T2, PrRPR L229A (Homo sapiens, UniProt P49683, L229A).
T2 construct: Flag; expressed in transfected cells; host or cells: AD293 cells
Put plainly: BRET2 Gi dissociation, L229A. The conditions noted are these: L229A (5.42), Gi-coupling, AD293 cells; mean ± S.E.M., n = 3; P <0.0001 vs WT; read-out: BRET2 pEC50 (converted). The procedure:
(§3) AD293 cells (Agilent) were propagated in Dulbecco’s Modified Eagle Medium (DMEM, Thermo Fisher Scientific), enriched with 10% fetal bovine serum (FBS, Thermo Fisher Scientific), and maintained at 37 °C in a 5% CO2 environment. Cells were then seeded in 6-well dishes at a density of 130,000–150,000 cells per mL and allowed to incubate overnight. On the next day, cells were transfected with plasmids at a 1:1:1:1 ratio for receptor:Gα-RLuc8:Gβ:Gγ-GFP2[52]. PEI MAX 40 K (BIOHUB) was utilized to form complex with the plasmids at a ratio of 3 µL PEI per µg of plasmids, in OptiMEM (Gibco-Thermo Fisher Scientific) at a concentration of 10 ng plasmids per µL OptiMEM. After 24 h of incubation, the culture was harvested by centrifugation with PBS. The cell suspension was then allocated into a white 384-well plate at a volume of 30 µL per well, followed by the addition of 10 µL of freshly prepared 50 µM coelenterazine 400a (Yeasen). Following a 15-min equilibration period, cells were treated with 10 µL of ligand for an additional 5 min. Plates were subsequently read in a BioTek Synergy H1 microplate reader (BioTek) equipped with 395 nm (RLuc8-coelenterazine 400a) and 510 nm (GFP2) emission filters. BRET2 ratios were calculated as the ratio of the GFP2 emission to RLuc8 emission. Data were normalized to the baseline response of the ligand. […]

The next experiment deals with T3, PrRPR C113A (Homo sapiens, UniProt P49683, C113A).
T3 construct: expressed in transfected cells; host or cells: AD293 cells
Put plainly: BRET2 Gq dissociation, C113A. The conditions noted are these: C113A (2.57), Gq-coupling, AD293 cells; mean ± S.E.M., n = 3; P 0.0007 vs WT; read-out: BRET2 pEC50 (converted). The protocol: as §1, §2

The target of another experiment is T4, PrRPR H295A (Homo sapiens, UniProt P49683, H295A).
T4 construct: Flag; expressed in transfected cells; host or cells: AD293 cells
Nature of the experiment: BRET2 Gi dissociation, H295A. The conditions noted are these: H295A (6.52), Gi-coupling, AD293 cells; mean ± S.E.M., n = 3; P 0.8032 vs WT; read-out: BRET2 pEC50 (converted). The protocol:
as §3

The target in another experiment is T5, PrRPR P142A (Homo sapiens, UniProt P49683, P142A).
T5 construct: expressed in transfected cells; host or cells: AD293 cells
Nature of the experiment: BRET2 Gq dissociation, P142A. The conditions noted are these: P142A (3.33), Gq-coupling, AD293 cells; mean ± S.E.M., n = 3; P <0.0001 vs WT; read-out: BRET2 pEC50 (converted). The protocol: as §1, §2

The target in a further experiment is T6, PrRPR L294A (Homo sapiens, UniProt P49683, L294A).
T6 construct: Flag; expressed in transfected cells; host or cells: AD293 cells
Nature of the experiment: BRET2 Gi dissociation, L294A. The conditions noted are these: L294A (6.51), Gi-coupling, AD293 cells; mean ± S.E.M., n = 3; P 0.2845 vs WT; read-out: BRET2 pEC50 (converted). The protocol:
as §3

T6 sequence (P49683 whole entry L294A): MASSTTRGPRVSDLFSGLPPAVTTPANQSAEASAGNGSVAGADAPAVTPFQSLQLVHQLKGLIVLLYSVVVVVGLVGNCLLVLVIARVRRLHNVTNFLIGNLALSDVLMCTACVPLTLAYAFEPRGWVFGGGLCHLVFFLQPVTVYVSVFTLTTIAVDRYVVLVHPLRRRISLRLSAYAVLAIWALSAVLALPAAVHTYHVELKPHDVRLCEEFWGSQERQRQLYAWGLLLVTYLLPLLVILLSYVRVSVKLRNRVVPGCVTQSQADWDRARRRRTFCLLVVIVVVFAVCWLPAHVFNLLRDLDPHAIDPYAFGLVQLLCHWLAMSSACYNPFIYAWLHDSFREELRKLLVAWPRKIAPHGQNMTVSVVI
T4 sequence (P49683 whole entry H295A): as the sequence (P49683 whole entry L294A) above, with A294L, H295A counted along it
T5 sequence (P49683 whole entry P142A): as the sequence (P49683 whole entry L294A) above, with P142A, A294L counted along it
T3 sequence (P49683 whole entry C113A): as the sequence (P49683 whole entry L294A) above, with C113A, A294L counted along it
T1 sequence (P49683 whole entry L203A): as the sequence (P49683 whole entry L294A) above, with L203A, A294L counted along it
T2 sequence (P49683 whole entry L229A): as the sequence (P49683 whole entry L294A) above, with L229A, A294L counted along it

On to `CC[C@H](C)[C@H](NC(=O)CNC(=O)[C@H](CCCNC(=N)N)NC(=O)[C@H](CO)NC(=O)[C@H](C)NC(=O)[C@H](Cc1ccc(O)cc1)NC(=O)[C@H](Cc1c[nH]c2ccccc12)NC(=O)[C@H](C)NC(=O)[C@@H]1CCCN1C(=O)[C@H](CC(N)=O)NC(=O)[C@@H](NC(=O)[C@H](CC(=O)O)NC(=O)[C@@H]1CCCN1C(=O)[C@@H](N)[C@@H](C)O)[C@@H](C)CC)C(=O)N[C@@H](CCCNC(=N)N)C(=O)N1CCC[C@H]1C(=O)N[C@H](C(=O)NCC(=O)N[C@@H](CCCNC(=N)N)C(=O)N[C@@H](Cc1ccccc1)C(N)=O)C(C)C` [PrRP20] (H-TPDINPAWYASRGIRPVGRF-NH2), for which the EC50 at PrRPR L203A is 3.09 nM; on PrRPR L229A, 85.1 nM; on PrRPR C113A, 3.39 nM; on PrRPR H295A, 3.02 nM; at PrRPR P142A it was 4.79 nM; on PrRPR L294A, 3.72 nM.
